From patent publication US20090253745A1, “MODULATORS OF OCULAR OXIDATIVE STRESS” (SIRION THERAPEUTICS, INC., priority 2007, published 2009)
Values belong to the molecule of their own block, whether it stands above or below them.

How the values were obtained:
[1] = system: intact lenses dissected from wild-type mouse eyeglobes; assay: Ex vivo lens toxicity test, isolated lenses incubated 2 days; details: 8 mM, 37 C, positive control for lens toxicity
Protocol: (§1) FIG. 3. Ex vivo lens toxicity test of TAPP1. The eyeglobes of mice (aged 42 days) were cultured overnight either with control solution (media containing 45% β-cyclodextrin) or TAPP1 (TAPP1 in media containing 45% β-cyclodextrin), at 37° C. overnight, and in 95% air/5% CO2. […] To determine the effects of TAPP1 on isolated lenses, intact lenses were dissected from wild-type mouse eyeglobes, and incubated in DMEM media in a 96 well tissue culture plate. Groups of 3-6 lenses were incubated in 200 μl of media alone (negative control), 4% (2-hydroxypropyl)-β-cyclodextrin (carrier control), 8 mM hydrogen peroxide (H2O2, positive control for lens toxicity), 4 mM TAPP1-O (free radical form), 4 mM TAPP1-R (reduced form), and 4 mM of the two products of TAPP1-R hydrolysis (HP-1 and HP-2), respectively. β-cyclodextrin was included as a carrier control because all of the stock solutions contained 45% (2-hydroxypropyl)-β-cyclodextrin. The samples were incubated in 5% CO2 incubator at 37 C for 2 days.
(§2) The TAPP compositions are intended for topical delivery to the anterior portion of the eye. […] Morphological or anatomical effects are determined by comparison of TAPP-treated samples to samples incubated with either the TAPP vehicle or samples which are exposed (10 min treatment) to 100% ethanol (a positive control for lens toxicity). […]

[2] = system: oxidation of ABTS to ABTS^•+ radical cation by metmyoglobin; assay: In vitro anti-oxidant assay: inhibition of metmyoglobin-mediated oxidation of ABTS to ABTS•+ (absorbance at 750 nm); format: biochemical
[3] = Pharmacokinetics and ocular tissue distribution of total radioactivity after single topical dose in mice; format: in vivo, ABCA4+/−/SOD+/− mice
Protocol: (§3) FIG. 13. Pharmacokinetics and ocular tissue distribution of total radioactivity following single topical dose administration of [^14C]Compound 14 in mice. Seven ABCA4+/−/SOD+/− mice were used for this study. The mice were anesthetized and drug was administered as described above. At each specified time post dosing (0 min, 15 min, 30 min, 1 hr, 2 hr, 4 hr and 6 hr), one mouse was sacrificed by cervical dislocation and both eyeballs were enucleated. Each eyeball was rinsed in 1 ml fresh PBS to wash off unabsorbed drug. The right eye was analyzed intact. From the left eye, the following tissues were harvested: lens, anterior segment, retina and posterior segment. Total radioactivity of all tissues was determined using a liquid scintillation analyzer. […] Peak drug concentration in all tissues occurred at ˜1 hr.
as §3, with “Seven” for “FIG. 13. Pharmacokinetics and ocular tissue distribution of total radioactivity following single topical dose administration of [^14C]Compound 14 in mice. Seven”, “and an ophthalmic formulation of Compound 14, prepared as described above,” for “and drug”, “administered topically to the eye.” for “administered as described above.”

[4] = Pharmacokinetics and ocular tissue distribution of total radioactivity after single topical dose in rabbit; format: in vivo, New Zealand White rabbits
Protocol: (§4) FIG. 14. Pharmacokinetics and ocular tissue distribution of total radioactivity following single topical dose administration of [^14C]Compound 14 in rabbit. Four New Zealand White rabbits, age 3-4 months, weight 2.7 to 3.2 kg were used for this study. The rabbits were anesthetized and drug was administered as described above. At each specified time post dosing (0.5, 1, 2, and 4 hr), blood was collected from the ear vein of one rabbit and recovered serum volume was recorded. Rabbits were sacrificed by asphyxiation and both eyeballs were enucleated. Each eyeball was rinsed in 10 ml fresh PBS to wash off unabsorbed drug. The following tissues were harvested from each eye: anterior segment, lens, vitreous body, retina and posterior segment (without retina). Total radioactivity of each tissue and in serum was determined using a liquid scintillation analyzer (Packard Tri-Carb 2100TR). CPM was converted to DPM, and quantity of the drug (pmole) absorbed in each tissue was calculated based on specific activity (average DPM in tissues from left and right eyes). The serum level of the drug was determined as concentration (pmole/ml). [^14C]Compound 14 was rapidly taken into ocular tissues (within ˜15 min) and peak drug concentration in all tissues occurred at ˜0.5 hr.
as §4, with “Four” for “FIG. 14. Pharmacokinetics and ocular tissue distribution of total radioactivity following single topical dose administration of [^14C]Compound 14 in rabbit. Four”, “and an ophthalmic formulation of Compound 14” for “and drug”, “administered topically to the eye.” for “administered as described above.”

eyeglobes of mice = assay: Ex vivo lens toxicity test, whole eyeglobes cultured overnight; details: brief treatment (10 min) with 100% ethanol, positive control
Protocol: as §1, §2

SMILES: OO [Compound H2O2, hydrogen peroxide]
- cataract in isolated lenses [1]: caused obvious cataract

- IC50 ([2]; 0-500 μM compound, 15 μM ABTS, 2.5 μM metmyoglobin, 80 μM hydrogen peroxide, room temperature): ~10 µM
- ocular tissues with lower concentrations [3]: lens and retina
- ocular tissues with the highest concentrations [3]: anterior and posterior segments
- time of peak drug concentration in all tissues [3]: ~1 h
- time until uptake into ocular tissues [3]: ≤ 15 min
- amount in vitreous body [4]: intermediate amount
- ocular tissues with the highest recovery [4]: anterior and posterior segments
- recovery in retina and lens, lower than in anterior and posterior segments [4]: approximately 10 fold
- time of peak drug concentration in all tissues [4]: ~0.5 h
- time until uptake into ocular tissues [4]: ≤ 15 min
SMILES: CC1(C)CC(OCCCCCC(O)/C=C/C(=O)O)CC(C)(C)N1O (stereo not shown) [[^14C]Compound 14]
- dose-response of anti-oxidation activity ([2]; 0, 5, 10, 20, 50, 100, 200 and 500 μM): dose-dependent anti-oxidation activity

SMILES: CCO [ethanol, reference compound]
- cataract formation in eyeglobes (eyeglobes of mice): caused cataract formation
